Source: patent publication US20080139489A1, “USE OF KETOLIDES FOR PREVENTING ARTERIAL THROMBOTIC COMPLICATIONS RELATED TO ATHEROSCLEROSIS” (Aventis Pharma S.A., priority 1997, published 2008)

System: rabbit platelets
Test: In vitro platelet aggregation (turbidimetry, platelet-rich plasma)
Type: cell-based
Details: for activity on this in vitro platelet aggregation test: result in words, concentration and aggregating agent not stated
Procedure: The platelet aggregation is measured by the turbidimetry method inspired by Born, by detecting the optical transmission through a platelet-rich plasma (PRP) to which and aggregating agent has been added. When the platelets aggregate, the plasma becomes clear and the optical transmission increases. Blood is taken (3 tubes per rabbit) by cardiac puncture from a rabbit into tubes containing sodium citrate. To obtain the platelet-rich plasma (PRP), the tubes are centrifuged at 160 g for 10 minutes. The supernatants are collected (PRP) and the pellet is re-centrifuged at 2000 g for 15 minutes to obtain the platelet-poor plasma (PPP). By dilution with the PPP, the PRP is adjusted to a concentration of 300,000 platelets per mm^3±10%. The counting is carried out using a Coulter ZM counter. Tubes containing 320 μl of PRP are incubated at +37° C. for 30 minutes in pre-incubation wells. The aggregometer is calibrated with the PPP for an optical transmission of 100% corresponding to a complete aggregation, and with the PRP obtained from the same rabbit for an optical transmission of 0% corresponding to the absence of aggregation. The test product P is added in a volume of 40 μl. After incubation for 2 minutes, the aggregating agent (10 μM ADP, 0.2 mM sodium arachidonate or collagen […]) is added in a volume of 40 μl. The aggregation begins immediately and can be seen on the printer. On the plot obtained, the height of the aggregation curve is measured in cm from the baseline before addition of the aggregating agent, and then converted into mVolts (=1/OD) using the formula 10 mV=2.5 cm.

CCC1OC(=O)C(C)C(=O)C(C)C(OC2OC(C)CC(N(C)C)C2O)C(C)(OC)CC(C)C(=O)C(C)C2N(CCCCn3cnc(-c4cccnc4)n3)C(=O)OC12C (centres unmarked) [Product P1]
activity on this in vitro platelet aggregation test: good activity

CC(=O)Oc1ccccc1C(=O)O [Aspirin, reference compound]
inhibition at 50 µM (Oryctolagus cuniculus, Platelet, product concentration 5 × 10^−5 M, rabbit platelets, arachidonic acid 0.2 mM, read-out: % of inhibition of the aggregation induced by arachidonic acid): 85%
inhibition at 100 µM (Oryctolagus cuniculus, Platelet, product concentration 10^−4 M, rabbit platelets, arachidonic acid 0.2 mM, read-out: % of inhibition of the aggregation induced by arachidonic acid): 100%
inhibition at 10 µM (Oryctolagus cuniculus, Platelet, product concentration 10^−5 M, rabbit platelets, arachidonic acid 0.2 mM, read-out: % of inhibition of the aggregation induced by arachidonic acid): 13%
inhibition at 1 µM (Oryctolagus cuniculus, Platelet, product concentration 10^−6 M, rabbit platelets, arachidonic acid 0.2 mM, read-out: % of inhibition of the aggregation induced by arachidonic acid): 8%

CCC1OC(=O)C(C)(F)C(=O)C(C)C(OC2OC(C)CC(N(C)C)C2O)C(C)(OC)CC(C)C(=O)C(C)C2N(CCCCn3cnc(-c4cccnc4)c3)C(=O)OC12C [Product P2, 11,12-dideoxy-3-de((2,6-dideoxy-3-C-methyl-3-O-methyl-alpha-L-ribohexopyranosyl)oxy)-2-fluoro-6-O-methyl-3-oxo-12,11-(oxycarbonyl((4-(4-(3-pyridyl)-1H-imidazol-1-yl)butyl)-imino))erythromycin]
activity on this in vitro platelet aggregation test: good activity

CCC1OC(=O)C(C)C(=O)C(C)C(OC2OC(C)CC(N(C)C)C2O)C(C)(OC)CC(C)C(=O)C(C)C2N(CCCCn3cnc(-c4cccnc4)c3)C(=O)OC12C [Product P3, 11,12-dideoxy-3-de((2,6-dideoxy-3-C-methyl-3-O-methyl-alpha-L-ribohexopyranosyl)oxy)-6-O-methyl-3-oxo-12,11-(oxycarbonyl((4-(4-(3-pyridyl)-1H-imidazol-1-yl)butyl)imino))erythromycin]
activity on this in vitro platelet aggregation test: good activity

CC[C@H]1OC(=O)[C@H](C)C(=O)[C@H](C)[C@@H](O[C@@H]2O[C@H](C)C[C@H](N(C)C)[C@H]2O)[C@](C)(OC)C[C@@H](C)C(=O)[C@H](C)[C@H]2N(COCCn3cnc(-c4cccnc4)c3)C(=O)O[C@]12C [Product P]
% of inhibition of the aggregation induced by arachidonic acid (product concentration 10^−4 M, rabbit platelets, arachidonic acid 0.2 mM): 90%
% of inhibition of the aggregation induced by arachidonic acid (product concentration 10^−5 M, rabbit platelets, arachidonic acid 0.2 mM): 73%
% of inhibition of the aggregation induced by arachidonic acid (product concentration 10^−6 M, rabbit platelets, arachidonic acid 0.2 mM): 42%
% of inhibition of the aggregation induced by arachidonic acid (product concentration 10^−7 M, rabbit platelets, arachidonic acid 0.2 mM): 7%
